Assay: Stability of free peptide incubated in release medium (HPLC)
Assay type: physicochemical
Details: free peptide incubated in release medium (PBS, pH 7.2, 37 C), after 49 days
Protocol: Octreotide acetate as the free peptide was measured to be 95% intact by high-pressure liquid chromatography (HPLC) following incubation in the release medium (PBS, pH 7.2, 37° C.) after 49 days. In contrast, incubation of octreotide acetate PLGA microparticle formulations produced 55% of modified peptide species after 70 days in the release medium (PBS, pH 7.2, 37° C., Table 2). […] The masses found were consistent with random acylation, for example, peptide plus one or two glycolic or lactic acid monomers in any combination. It may be that acylation products arise from attack on PLGA fragments or the polymer backbone by nucleophilic moieties in octreotide. At a lower pH these moieties likely would be protonated reducing their nucleophilicity and consequently the amount of acylated product. It was observed that formation of acylated byproducts for octreotide acetate PLGA microparticles incubated in 100 mM sodium acetate (NaOAc, pH 4.0) buffer was reduced to 1.25% at 49 days, in marked contrast to the results for PBS buffer (55%).

Peptide intact by HPLC: 95%
SMILES: C[C@@H](O)[C@@H]1NC(=O)[C@H](CCCCN)NC(=O)[C@@H](Cc2c[nH]c3ccccc23)NC(=O)[C@H](Cc2ccccc2)NC(=O)[C@@H](NC(=O)[C@H](N)Cc2ccccc2)CSSC[C@@H](C(=O)N[C@H](CO)[C@@H](C)O)NC1=O [Octreotide acetate]

— patent US8871269B2, “Method for the preparation of controlled release formulations” (Evonik Corporation, priority 2003, dated 2014)
